{"source": "patent US7635719B2", "about": "“Use of adamatyl methoxydiphenyl propenoic acid for the treatment of acne” (Sigma-Tau Industrie Farmaceutiche Riunite S.p.A., priority 2005, dated 2009)", "key": {"[1]": {"test_system": "epidermal utriculi (comedones) of rhino mice", "assay": "Comedolytic action of ST1898 (Formulation 2) on epidermal pseudocomedones in rhino mice", "type": "in vivo, rhino (RHJ/LeJ) mice", "description": "Formulations: ST1898 0.1 and 0.05% in the vehicle.\nVehicle: carbomer 980, propylene glycol, poloxamer, disodium edentate, methyl hydroxybenzoate, phenoxyethanol, sodium hydroxide and purified water).\nAdapalene (Differin Gel®) was used as reference compound (0.1%).\n(§1) 30 rhino (RHJ/LeJ) mice (Jackson Laboratory), 15 male and 15 female (6-8 weeks of age) were subdivided in 6 mice/group. Two groups were treated with ST1898 (Formulation 2) (0.1% and 0.05% in the vehicle), a group with adapalene (Differin® gel), used as reference compound (0.1%), a group with the vehicle (the same of the formulation of Differin® gel: carbomer 980, propylene glycol, poloxamer, disodium edentate, methyl hydroxybenzoate, phenoxyethanol, sodium hydroxide and purified water).\nA group was not treated (control). The drugs (50 μl) were applied with a sterile gloved finger topically on the dorsal skin (massage for 30-45 sec), once daily for 5 consecutive days/week (excluding Saturdays and Sundays) for 3 consecutive […]. Three days after the last application, mice were sacrificed by cervical dislocation. Two skin punch biopsies (6 mm) were taken immediately after death from all sacrificed animals. The biopsies were formalin-fixed (10% buffered formalin solution) and paraffin-embedded.\nQuantitative histological image analysis was evaluated as the total number of epidermal utriculi (comedones) per centimeter of stratum corneum length, the comedo profile, and the epidermal thickness. From one biopsy, three 3-μm thick skin sections were obtained at 150 μm intervals and were stained with hematoxylin-eosin. The second biopsy was kept stored for records.\nAssisted computer morphometric analysis of the stained skin sections was performed using a Zeiss KS300.3 system (parameters n. 1, 3 and 4). For total length of the stratum corneum measurement a micrometric equipment was used. The following microscopic parameters were measured:\n1) on each open epidermal utriculum/comedo the largest diameter or diameter taken at half depth (D) and diameter of the surface orifice (d),\n2) length of the three sections, taken as total length of the stratum corneum,\n3) total number of epidermal utriculi/comedones in the three sections,\n4) in interfollicular areas, surface (S) of the epidermis and length (L) of the corresponding basal layer.\n1) number of utriculi/(comedones)/length of stratum corneum (cm);\n2) Comedo profile, calculated as r=d/D,\n3) epidermal thickness, calculated as S/L in […]m.\nA topical application on the dorsal skin (massage for 30-45 sec) was performed of 50 μl applied with a gloved finger. The treatment was done once daily for 5 consecutive days/week (excluding Saturdays and Sundays) for 3 consecutive weeks. […]"}, "[2]": {"assay": "Body weight of rhino mice treated with ST1898 (Formulation 2) or adapalene", "type": "in vivo, rhino (RHJ/LeJ) mice", "description": "as §1\nA topical application on the dorsal skin (massage for 30-45 sec) was performed of 50 μl applied with a gloved finger. The treatment was done once daily for 5 consecutive days/week (excluding Saturdays and Sundays) for 3 consecutive weeks.\nDuring the treatment, the body weight of mice was recorded to control the healthy status of mice. No significative variation in body weight was found (table 2).\nMice were sacrificed 3 days after the last treatment. The vehicle used for ST1898 (Formulation 2) was the same of Differin gel (carbomer 980, propylene glycol, poloxamer, disodium edentate, methyl hydroxybenzoate, phenoxyethanol, sodium hydroxide and purified water)."}}, "data": [{"molecule": "COc1ccc(-c2ccc3cc(C(=O)O)ccc3c2)cc1C12CC3CC(CC(C3)C1)C2", "note": "[Adapalene, reference compound]", "values": [{"measurement": "Comedones (n/cm)", "setting": "[1]; 0.1% gel (Formulation 2 / Differin gel), topical 50 μl qdx5/wx3w, mean ± SD, untreated 57.35, vehicle 57.27", "result": "28.31 ± 2.92", "unit": "n/cm"}, {"measurement": "Comedo profile (r = d/D)", "setting": "[1]; 0.1% gel, topical 50 μl qdx5/wx3w, mean ± SD, untreated 0.62, vehicle 0.61", "result": "1.24 ± 0.11"}, {"measurement": "Epidermal thickness (μm)", "setting": "[1]; 0.1% gel, topical 50 μl qdx5/wx3w, mean ± SD, untreated 20.90, vehicle 20.56", "result": "57.33 ± 9.99", "unit": "μm"}, {"measurement": "Histological analysis: interfollicular epidermis (in words)", "setting": "[1]; skin of treated rhino mice", "result": "hyperplasia of interfollicular epidermis"}, {"measurement": "Initial body weight gr ± SE", "setting": "[2]; 0.1% group, before treatment", "result": "21.3 ± 1.1", "unit": "gr"}, {"measurement": "Body weight loss max (%)", "setting": "[2]; 0.1% topical qdx5/wx3w", "result": 4, "unit": "%"}, {"measurement": "Final body weight gr ± SE", "setting": "[2]; 0.1% topical qdx5/wx3w", "result": "21.2 ± 1.3", "unit": "gr"}]}]}
